Data as given in patent publication US12497393B2, “β-lactam compound, use thereof and preparation method therefor” (priority 2020, dated 2025).
Where two headings read alike, the source gives them in different places.

How the values were obtained:
Test in all cases: Antibacterial activity MIC assay (two-fold dilution agar plating)
Type in all cases: cell-based
[1] = test system: Escherichia coli; settings: Escherichia coli, read-out: Minimal Inhibitory Concentration (MIC)
Procedure: (§1) Antibacterial Activity-Evaluating Method (MIC Assay)
(§2) In this study, the compounds of the present invention were tested for their antibacterial activities by using two-fold dilution agar plating method and Denley Multipoint Inoculator A400 according to the guidelines of the CLSI/NCCLS standard. The tested strains were amplified by hydrolyzed casein peptone (Mueller-Hinton Agar) broth and Brain and Heart Infusion. The strains used in this study were bacterial strains that were purchased from ATCC or clinically isolated in Chinese hospitals. Aztreonam, polymyxin or levofloxacin was used as positive control. The drugs were diluted with hydrolyzed casein peptone broth to the desired concentrations including 128.0, 64.0, 32.0, 16.0, 8.0, 4.0, 2.0, 1.0, 0.5, 0.25, 0.125, 0.06 and 0.03 μg/mL, and then placed respectively into each well and mixed thoroughly. After inoculation, the tested strains were incubated for 18 hours at a constant temperature of 35° C., and their growth levels were observed. The drug concentration with no microbial growth in the well was recorded as the lowest Minimal Inhibitory Concentration (MIC).

[2] = test system: Providencia rettgeri; settings: Providencia rettgeri, ATCC31052, Providencia rettgeri ATCC 31052; read-out: Minimal Inhibitory Concentration (MIC)
Procedure: as §1, §2

[3] = test system: Acinetobacter baumannii; settings: Acinetobacter baumannii, read-out: Minimal Inhibitory Concentration (MIC)
Procedure: as §1, §2

[4] = test system: Salmonella typhi; settings: Salmonella enterica, TYPHI, read-out: Minimal Inhibitory Concentration (MIC)
Procedure: as §1, §2

[5] = test system: Proteus vulgaris; settings: Proteus vulgaris, ATCC29905, Proteus vulgaris ATCC 29905; read-out: Minimal Inhibitory Concentration (MIC)
Procedure: as §1, §2

[6] = test system: Klebsiella Pneumoniae; settings: Klebsiella pneumoniae, read-out: Minimal Inhibitory Concentration (MIC)
Procedure: as §1, §2

[7] = test system: Serratia marcescens; settings: ATCC21074; Serratia marcescens ATCC 21074; read-out: Minimal Inhibitory Concentration (MIC)
Procedure: as §1, §2

[8] = test system: Enterobacter aerogenes; settings: Klebsiella aerogenes, ATCC13048; Enterobacter aerogenes ATCC 13048; read-out: Minimal Inhibitory Concentration (MIC)
Procedure: as §1, §2

[9] = test system: Shigella flexneri; settings: ATCC12022; Shigella flexneri ATCC 12022; read-out: Minimal Inhibitory Concentration (MIC)
Procedure: as §1, §2

[10] = test system: Citrobacter freundii; settings: ATCC43864; Citrobacter freundii ATCC 43864; read-out: Minimal Inhibitory Concentration (MIC)
Procedure: as §1, §2

[11] = test system: Stenotrophomonas maltophilia; settings: ATCC13636; Stenotrophomonas maltophilia ATCC 13636; read-out: Minimal Inhibitory Concentration (MIC)
Procedure: as §1, §2

[12] = test system: Enterobacter cloacae; settings: read-out: Minimal Inhibitory Concentration (MIC)
Procedure: as §1, §2

[13] = test system: Proteus mirabilis; settings: Proteus mirabilis, ATCC49565, Proteus mirabilis ATCC 49565; read-out: Minimal Inhibitory Concentration (MIC)
Procedure: as §1, §2

[14] = test system: Pseudomonas aeruginosa; settings: read-out: Minimal Inhibitory Concentration (MIC)
Procedure: as §1, §2

[15] = ATCC25922, Escherichia coli ATCC 25922, ESBLs(−)
[16] = ATCC35218, Escherichia coli ATCC 35218, ESBLs(+)
[17] = Escherichia coli 08-85, mcr-1(+)
[18] = Escherichia coli 13-43, mcr-1(+)
[19] = Escherichia coli 13-66, mcr-1(+)
[20] = Escherichia coli 16-1, ESBLs(+)
[21] = Escherichia coli 16-7, ESBLs(−)
[22] = Escherichia coli 17-R28, CRE, NDM-1(+)
[23] = Escherichia coli CDC1001728, NDM-1(+)
[24] = ATCC19606, Acinetobacter baumannii ATCC 19606
[25] = ATCC700603, Klebsiella Pneumoniae ATCC 700603, ESBLs(+)
[26] = ATCCBAA2146, Klebsiella Pneumoniae ATCC BAA-2146, NDM-1(+)
[27] = Klebsiella Pneumoniae 09-20, mcr-1(+)
[28] = Klebsiella Pneumoniae 16-2, ESBLs(−)
[29] = Klebsiella Pneumoniae 16-14, ESBLs(+)
[30] = Klebsiella Pneumoniae 17-R27, CRE
[31] = ATCC43560, Enterobacter cloacae ATCC 43560
[32] = Enterobacter cloacae CDC1000654
[33] = ATCC27853, Pseudomonas aeruginosa ATCC 27853

Measured: MIC

CC1(C)[C@H](NC(=O)/C(=N\OC2(C(=O)O)CC2)c2csc(N)n2)C(=O)N1OS(=O)(=O)O [Compound A-1]
2 µg/mL: [6]; [28] | [12]; [32] | [14]; Pseudomonas aeruginosa PAO1
16 µg/mL: [3]; [24]
≤ 0.03 µg/mL: [2] | [5] | [13]
0.12 µg/mL: [1]; [15] | [1]; [17] | [1]; [18] | [1]; [19] | [1]; [21] | [6]; [29] | [8] | [9] | [10]
32 µg/mL: [3]; Acinetobacter baumannii 16-33
0.5 µg/mL: [6]; [26]
0.06 µg/mL: [1]; [16] | [1]; [20] | [4] | [6]; [27] | [12]; [31]
4 µg/mL: [1]; [22] | [6]; [25]
64 µg/mL: [3]; Acinetobacter baumannii 16-16
8 µg/mL: [11] | [14]; [33] | [14]; Pseudomonas aeruginosa 16-11
0.25 µg/mL: [1]; [23] | [6]; [30] | [7]

CC1(C)[C@H](NC(=O)/C(=N\OC2(C(=O)O)CCC2)c2csc(N)n2)C(=O)N1OS(=O)(=O)O [Compound A-2]
16 µg/mL: [1]; [22] | [3]; [24] | [3]; Acinetobacter baumannii 16-33
0.06 µg/mL: [1]; [16] | [1]; [20]
4 µg/mL: [11] | [14]; [33] | [14]; Pseudomonas aeruginosa 16-11
≤ 0.03 µg/mL: [2] | [5] | [13]
0.12 µg/mL: [1]; [15] | [1]; [17] | [1]; [18] | [1]; [19] | [1]; [21] | [4] | [6]; [27] | [6]; [29] | [10] | [12]; [31]
0.25 µg/mL: [6]; [26] | [6]; [30] | [7] | [9]
1 µg/mL: [6]; [25] | [8] | [14]; Pseudomonas aeruginosa PAO1
0.5 µg/mL: [1]; [23]
2 µg/mL: [6]; [28] | [12]; [32]
> 64 µg/mL: [3]; Acinetobacter baumannii 16-16

CC1(C)[C@H](NC(=O)/C(=N\OC2(C(=O)O)CCCC2)c2csc(N)n2)C(=O)N1OS(=O)(=O)O [Compound A-3]
32 µg/mL: [3]; [24] | [3]; Acinetobacter baumannii 16-33
0.5 µg/mL: [1]; [18] | [1]; [21] | [1]; [23] | [4] | [6]; [26] | [6]; [29] | [7] | [8] | [12]; [31]
1 µg/mL: [6]; [25]
2 µg/mL: [6]; [28] | [14]; Pseudomonas aeruginosa PAO1
> 64 µg/mL: [3]; Acinetobacter baumannii 16-16
8 µg/mL: [1]; [22]
≤ 0.03 µg/mL: [2] | [5]
4 µg/mL: [11] | [12]; [32] | [14]; [33] | [14]; Pseudomonas aeruginosa 16-11
0.25 µg/mL: [1]; [15] | [1]; [16] | [1]; [17] | [1]; [19] | [1]; [20] | [6]; [27] | [6]; [30] | [9] | [10]
0.06 µg/mL: [13]
